Results published in article PMC8770261, “Automatic Production and Preliminary PET Imaging of a New Imaging Agent [^18F]AlF-FAPT” (Frontiers in Oncology, 2022).

Assay: Biological distribution in normal Kunming mice (γ counter, %ID/g)
Type: in vivo
Conditions: tail vein injection, 60 min
Experimental: The biological distribution experiment of [^18F]AlF-FAPT was carried out in normal Kunming mice. Twenty Kunming mice were randomly and equally divided into four groups and each injected with 0.1 ml of [^18F]AlF-FAPT (1.48~2.22 MBq) through their tail vein. The mice were then sacrificed after 5, 30, 60, and 90 minutes, followed by weighing their organs and determining the radioactivity using a γ counter. The radioactivity of each organ was normalized using the percentage of injected dose per gram of tissue (% ID/g). [^18F]FAPI-42 also used the same method mentioned above to carry out the biological distribution at the time point of 60 minutes.

radioactivity uptake value in the gallbladder: 7.30 ± 1.43 %ID/g
Structure (SMILES): N#C[C@@H]1CC(F)(F)CN1C(=O)CNC(=O)c1ccnc2ccc(OCCCN3CCN(C(=O)CN4CCN5CCN(CC4)CC(=O)[O][Al]([F])[O]C(=O)C5)CC3)cc12 [[^18F]FAPI-42]
